What all share (assay type): functional
The subject of test [1] is AGS. As to the kind of experiment: Cytotoxicity against human TRAIL-resistant AGS cells at 27.1 nM after 24 hrs by FMCA in presence of TRAIL.
The test system of test [2] is AGS. As to the kind of experiment: Cytotoxicity against human TRAIL-resistant AGS cells after 24 hrs by FMCA in presence of TRAIL.
The test system of test [3] is AGS. In words: Cytotoxicity against human TRAIL-resistant AGS cells at 29.2 nM after 24 hrs by FMCA in absence of TRAIL.
For test [4], the system named is AGS. In words: Cytotoxicity against human TRAIL-resistant AGS cells at 29.2 nM after 24 hrs by FMCA in presence of TRAIL.
Test [5] relates to AGS. In words: Cytotoxicity against human TRAIL-resistant AGS cells at 125 nM after 24 hrs by FMCA in absence of TRAIL.
Test [6] relates to AGS. As to the kind of experiment: Induction of DR5 mRNA expression in human TRAIL-resistant AGS cells at 125 nM by reat-time RT-PCR analysis relative to GADPH.
The test system of test [7] is AGS. As to the kind of experiment: Induction of DR4 mRNA expression in human TRAIL-resistant AGS cells at 250 nM by reat-time RT-PCR analysis relative to GADPH.
For test [8], the system named is AGS. In words: Induction of DR4 mRNA expression in human TRAIL-resistant AGS cells at 125 nM by reat-time RT-PCR analysis relative to GADPH.
Test [9] has as its system AGS. As to the kind of experiment: Induction of DR4 mRNA expression in human TRAIL-resistant AGS cells at 500 nM by reat-time RT-PCR analysis relative to GADPH.
In test [10] the test system is AGS. As to the kind of experiment: Cytotoxicity against human TRAIL-resistant AGS cells at 125 nM after 24 hrs by FMCA in presence of TRAIL.
The subject of test [11] is AGS. As to the kind of experiment: Induction of DR5 mRNA expression in human TRAIL-resistant AGS cells at 500 nM by reat-time RT-PCR analysis relative to GADPH.
Test [12] has as its system AGS. As to the kind of experiment: Induction of DR5 mRNA expression in human TRAIL-resistant AGS cells at 250 nM by reat-time RT-PCR analysis relative to GADPH.

Activity calls are given as the source filed them. The rule behind the calls is not given here.

For `CC(=O)O[C@H]1[C@H](O[C@@H]2[C@@H](O)[C@H](C)O[C@@H](O[C@H]3[C@H](O[C@H]4CC[C@@]5(C)[C@@H](CC[C@]6(C)[C@@H]5CC=C5[C@@H]7CC(C)(C)CCC7(C(=O)O)CC[C@]56C)[C@]4(C)CO)OC[C@H](O)[C@@H]3O)[C@@H]2O)OC[C@@H](O)[C@@H]1O` (stereo partly specified), the Activity in the test with AGS [1] is 45%. Also, in the test with AGS [2], the outcome was Active.

Turning to `CC(=O)O[C@@H]1CO[C@@H](O[C@@H]2[C@@H](O)[C@H](C)O[C@@H](O[C@H]3[C@H](O[C@H]4CC[C@@]5(C)[C@@H](CC[C@]6(C)[C@@H]5CC=C5[C@@H]7CC(C)(C)CCC7(C(=O)O)CC[C@]56C)[C@]4(C)CO)OC[C@H](O)[C@@H]3O)[C@@H]2O)[C@H](O)[C@H]1O` (stereo partly specified), in the test on AGS [2], the result was Active.

On to `CC(=O)O[C@@H]1[C@@H](O)[C@H](O[C@@H]2[C@@H](O)[C@H](C)O[C@@H](O[C@H]3[C@H](O[C@H]4CC[C@@]5(C)[C@@H](CC[C@]6(C)[C@@H]5CC=C5[C@@H]7CC(C)(C)CCC7(C(=O)O)CC[C@]56C)[C@]4(C)CO)OC[C@H](O)[C@@H]3O)[C@@H]2O)OC[C@H]1OC(C)=O` (stereo partly specified), for which the outcome in the test on AGS [2] was Active.

For `CC(=O)O[C@H]1[C@H](O[C@@H]2[C@@H](O)[C@H](C)O[C@@H](O[C@H]3[C@H](O[C@H]4CC[C@@]5(C)[C@@H](CC[C@]6(C)[C@@H]5CC=C5[C@@H]7CC(C)(C)CCC7(C(=O)O)CC[C@]56C)[C@]4(C)CO)OC[C@H](O)[C@@H]3O)[C@@H]2O)OC[C@@H](OC(C)=O)[C@@H]1O` (stereo partly specified), in the test with AGS [2], the outcome was Active.

`O=c1cc(-c2ccc(O)c(O)c2)oc2cc(O)cc(O)c12` [LUTEOLIN]: the Activity in the test on AGS [2] worked out at 70%.

With `CO[C@H]1[C@H](O)[C@H](O[C@H]2CC[C@@]3(C)[C@H](CC[C@@H]4[C@@H]3CC[C@]3(C)[C@@H](C5=CC(=O)OC5)CC[C@]43O)C2)O[C@@H](C)[C@@H]1O` [NERIIFOLIN], the Activity with AGS [3] was 79%; in the test with AGS [4], 36%.

With `CO[C@H]1[C@H](O)[C@H](O[C@H]2CC[C@@]3(C)[C@@H](CC[C@@H]4[C@@H]3CC[C@]3(C)[C@@H](C5=CC(=O)OC5)CC[C@]43O)C2)O[C@@H](C)[C@@H]1O` [THEVEFOLIN], the Activity in the test on AGS [5] amounted to 65%; in the test with AGS [10] it was 46%. In addition, the “fold change (FC)” value is given as 1.2 in the test with AGS [6]; 3.3 with AGS [7]; 1.8 in the test with AGS [8]; 3.6 in the test with AGS [9]; 1.8 with AGS [11]; 1.6 with AGS [12].

The values are drawn from ChEMBL document CHEMBL1153786, “Cardenolide glycosides of Thevetia peruviana and triterpenoid saponins of Sapindus emarginatus as TRAIL resistance-overcoming compounds” (2009).
